Measurements published in the OligoGym collection.
“And” between values parts separate entries of the source, which are not always exact repeats. Equal entries are not always repeated. After the bases stand the sugars from the 5' end (letter, count) and the backbone: PS all phosphorothioate, else s phosphorothioate and o phosphodiester by linkage. Methylation of C is not given here. e = 2'-O-(2-methoxyethyl) (MOE); k = constrained ethyl (cEt); d = 2'-deoxy (DNA)

What was measured:
MALAT1 = details: ASO, A431, 0.005 µM
IRF4 = details: ASO

| Sequence | target mRNA inhibition (MALAT1) | other results |
| --- | --- | --- |
| CACTACCATATCCAAA (sugars k3 d10 k3, PS) | 23% | – |
| TTTGAGTATGCTGATA (sugars k3 d10 k3, PS) | 47% | – |
| TAAAGTAGACCAACTA (sugars k3 d10 k3, PS) | 14% | – |
| ACTCCCCCCCGCCTCA (sugars k3 d10 k3, PS) | 26% | – |
| TCTAACATAGTTCAAC (sugars k3 d10 k3, PS) | 29% | – |
| CACCGGAATTCGATCA (sugars k3 d10 k3, PS) | 20% | – |
| TAGAGAAGAATCCCCC (sugars k3 d10 k3, PS) | 34% | – |
| GCGCTTAAGAGGGCAG (sugars k3 d10 k3, PS) | 6% | – |
| CTACTGGCTGCATCGA (sugars k3 d10 k3, PS) | 54% | – |
| GTGGTTATAGCTTGAC (sugars k3 d10 k3, PS) | 79% and 93% | – |
| AACATTGGCACACAGC (sugars k3 d10 k3, PS) | 54% | – |
| CTCTGATCATAATCTC (sugars k3 d10 k3, PS) | 35% | – |
| CTACTCCAAGCATTGG (sugars k3 d10 k3, PS) | 27% | – |
| CTGAGGCAAACGAAAC (sugars k3 d10 k3, PS) | -6% | – |
| GAAAGCGAGTTCAAGT (sugars k3 d10 k3, PS) | -1% | – |
| CACACCCAGAAGTGTT (sugars k3 d10 k3, PS) | 13% | – |
| ACCTGGGTCAGCTGTC (sugars k3 d10 k3, PS) | 14% | – |
| GCTGAAATCTATTCAA (sugars k3 d10 k3, PS) | -159% | – |
| TGCCGACCTCACGGAT (sugars k3 d10 k3, PS) | 24% | – |
| ATCATTAAGCCACTTC (sugars k3 d10 k3, PS) | 53% and 69% | – |
| AACTCGCATCACCGGA (sugars k3 d10 k3, PS) | 21% | – |
| CCATCATACTGCCAGG (sugars k3 d10 k3, PS) | 17% | – |
| CGGAATTCGATCACCT (sugars k3 d10 k3, PS) | 19% | – |
| GAGGTATGACATATAA (sugars k3 d10 k3, PS) | 54% and 49% and 50% | – |
| TCACCAAATTGCACTC (sugars k3 d10 k3, PS) | 21% | – |
| TGAATTCAACTGGAAG (sugars k3 d10 k3, PS) | 36% | – |
| TGCCCAAATTAATGCA (sugars k3 d10 k3, PS) | 29% | – |

| Sequence | target mRNA inhibition (MALAT1) | other results |
| --- | --- | --- |
| GCCCAGTAGGCCAGAC (sugars k3 d10 k3, PS) | 25% | – |
| GCAGATTCTGTGTTAT (sugars k3 d10 k3, PS) | -2% | – |
| CTCTGCATCTAGGCCA (sugars k3 d10 k3, PS) | 40% | – |
| TAGAGGGCCTCTATTG (sugars k3 d10 k3, PS) | 39% | – |
| AAGTTGGTAATTACTC (sugars k3 d10 k3, PS) | 22% | – |
| CTTTTAATCATACTCC (sugars k3 d10 k3, PS) | 16% | – |
| GTAGACCAACTAAGCG (sugars k3 d10 k3, PS) | 26% | – |
| ATTTTAAGGTTGCATC (sugars k3 d10 k3, PS) | 37% | – |
| TTTTTGTTCGAGAAAT (sugars k3 d10 k3, PS) | -7% | – |
| GCACAGCTCGGGCGAG (sugars k3 d10 k3, PS) | -20% | – |
| TACTATATTTAAGGCC (sugars k3 d10 k3, PS) | 1% | – |
| ACTTAAATTACTAGCG (sugars k3 d10 k3, PS) | -10% | – |
| TTCCTTTCATAGAGCC (sugars k3 d10 k3, PS) | 70% and 88% | – |
| CTGGTTAGGTATGAGC (sugars k3 d10 k3, PS) | 3% | – |
| GCTTTGTTGTCTCTCC (sugars k3 d10 k3, PS) | 93% and 97% | – |
| ACATAGTTCAACCCAC (sugars k3 d10 k3, PS) | 18% | – |
| TAATGTAGTGTAACAT (sugars k3 d10 k3, PS) | 29% | – |
| TATCCTGATATTGGAT (sugars k3 d10 k3, PS) | 24% | – |
| CAAGATTCATGAGTAT (sugars k3 d10 k3, PS) | 34% | – |
| TCAAGAGGAACTAGTC (sugars k3 d10 k3, PS) | – | target mRNA inhibition (IRF4; SK-MEL-28, 4 µM): 24% |
| CAGTAAGAGGGCAGTC (sugars k3 d10 k3, PS) | – | target mRNA inhibition (IRF4; SK-MEL-28, 4 µM): 50% |
| GAGTACCCAAGACTCC (sugars k3 d10 k3, PS) | – | target mRNA inhibition (IRF4; SK-MEL-28, 4 µM): 25% |
| TGTAGAAGCCCACAAG (sugars k3 d10 k3, PS) | – | target mRNA inhibition (IRF4; MM.1R, 1 µM): -7% |
| CCCACGCGGGAGGCTC (sugars k3 d10 k3, PS) | – | target mRNA inhibition (IRF4; MM.1R, 1 µM): -23% |
| AATAGAGGAATGGCGG (sugars k3 d10 k3, PS) | – | target mRNA inhibition (IRF4; SK-MEL-28, 4 µM): 53% |
| GCGGGCACAGCCGTCC (sugars k3 d10 k3, PS) | – | target mRNA inhibition (IRF4; MM.1R, 1 µM): -21% |
| CGAAACACAGTCTGCT (sugars k3 d10 k3, PS) | – | target mRNA inhibition (IRF4; SK-MEL-28, 4 µM): 53% |

| Sequence | target mRNA inhibition (MALAT1) | other results |
| --- | --- | --- |
| GGACTCCGGGAGCCTG (sugars k3 d10 k3, PS) | – | target mRNA inhibition (IRF4; MM.1R, 1 µM): -8% |
| ATGGACCACGCAGCCT (sugars k3 d10 k3, PS) | – | target mRNA inhibition (IRF4; SK-MEL-28, 4 µM): 39% |
| GAGCGAAGGGTAAGGC (sugars k3 d10 k3, PS) | – | target mRNA inhibition (IRF4; SK-MEL-28, 4 µM): 38% |
| CGAGATATAAATAGCT (sugars k3 d10 k3, PS) | – | target mRNA inhibition (IRF4; SK-MEL-28, 4 µM): 53% and 58% |
| AAGCAGTGATGTCAGG (sugars kkdddddddddkdkdk, PS) | – | target mRNA inhibition (IRF4; MM.1R, 1 µM): 60% and 61% |
| TTATCATCCGAAAAGA (sugars k3 d10 k3, PS) | – | target mRNA inhibition (IRF4; MM.1R, 1 µM): 4% |
| GGCTCCCTCAGGAACA (sugars k3 d10 k3, PS) | – | target mRNA inhibition (IRF4; SK-MEL-28, 4 µM): 19% |
| TGTGCTTGCCAAGCCT (sugars kdddddddddkekeke, PS) | – | target mRNA inhibition (IRF4; MM.1R, 1 µM): -3% and 16% |
| GGCAGTTGTGCCGTCT (sugars k3 d10 k3, PS) | – | target mRNA inhibition (IRF4; MM.1R, 1 µM): -17% |
| TCAAGTAAAGTGATCA (sugars k3 d10 k3, PS) | – | target mRNA inhibition (IRF4; SK-MEL-28, 4 µM): 48% |
| AATTTTAAGGCCCTGT (sugars k3 d10 k3, PS) | – | target mRNA inhibition (IRF4; SK-MEL-28, 4 µM): 24% |
| GACACTTTTAGAGAGG (sugars k3 d10 k3, PS) | – | target mRNA inhibition (IRF4; SK-MEL-28, 4 µM): 87% and 78% |
| AGTGACTTGCATCCAT (sugars kkdddddddddekeke, PS) | – | target mRNA inhibition (IRF4; MM.1R, 1 µM): 34% |
| CTCTATAGTGTTCCAG (sugars kkdddddddddekeke, PS) | – | target mRNA inhibition (IRF4; MM.1R, 1 µM): 43% |
| CCTCAGTTTGTGAAGC (sugars kkkdddddddddkeke, PS) | – | target mRNA inhibition (IRF4; MM.1R, 1 µM): 8% |
| GGCTCTTGATGTGAAC (sugars k3 d10 k3, PS) | – | target mRNA inhibition (IRF4; MM.1R, 1 µM): -12% |
| CCTGAAGCTTAGTTAT (sugars k3 d10 k3, PS) | – | target mRNA inhibition (IRF4; SK-MEL-28, 4 µM): 35% |
| TACCAACGACAGCATA (sugars k3 d10 k3, PS) | – | target mRNA inhibition (IRF4; SK-MEL-28, 4 µM): 61% |
| CTAGACAGAGAGTCCG (sugars k3 d10 k3, PS) | – | target mRNA inhibition (IRF4; MM.1R, 1 µM): 5% |
| GAAGGATGGGACCGCC (sugars k3 d10 k3, PS) | – | target mRNA inhibition (IRF4; SK-MEL-28, 4 µM): 41% |
| CACCCACACAAGTCTT (sugars k3 d10 k3, PS) | – | target mRNA inhibition (IRF4; SK-MEL-28, 4 µM): 9% |
| ACCTACCTGCCCTTGG (sugars k3 d10 k3, PS) | – | target mRNA inhibition (IRF4; SK-MEL-28, 4 µM): 28% |
| GGTTTCAGTTGTAAAT (sugars k3 d10 k3, PS) | – | target mRNA inhibition (IRF4; SK-MEL-28, 4 µM): 58% |
| AGCTTGATAAAGGCTG (sugars kkkddddddddkekek, PS) | – | target mRNA inhibition (IRF4; MM.1R, 1 µM): -8% |
| AAGCTTGATAAAGGCT (sugars kddddddddddkekek, PS) | – | target mRNA inhibition (IRF4; MM.1R, 1 µM): 3% |
| GCAGTGATGTCAGGTT (sugars kkkdddddddddkeke, PS) | – | target mRNA inhibition (IRF4; MM.1R, 1 µM): 56% |
